Measured values reported in patent US11007192B2, “Use of 5-amino-2,3-dihydro-1,4-phthalazinedione in the treatment of chronic progressive multiple sclerosis” (METRIOPHARM AG, priority 2016, dated 2021).

What was measured:
PPMS or SPMS = details: five years (60 months) after start; 200 mg then 300 mg twice a day; baseline EDSS 4.0
Method: EDSS determination is then performed every 6 months. […] Thus, the dosage is increased to 300 mg twice a day. […] No dosage adjustment is necessary. […] The next treatment round might vary in dosages used and duration of the treatments depending on disease progression.

TNFalpha = details: add on to standard therapy, acute phase RRMS patients; cited from earlier work
neuronal damage = details: low concentrations in vitro; cited from earlier work
[1] = depending on compound, dosage and formulation; cited from earlier work
inflammatory cytokines = details: mouse, in vivo
Method: (§1) Form II has earlier been tested for its effects on circulating levels of TNF-alpha and IL-6 2 and 4 hours after administration of a sublethal dose of LPS in CD1 mice. Therefore, Form II was administered i.p. at the dose of 0.5, 1.5 and 15.0 mg/kg 15 minutes before LPS challenge.

[2] = tested on: adjuvant induced arthritis; details: rat, in vivo
Method: Rats were evaluated for arthritis daily by an observer unaware of the treatment according to a macroscopic scoring system. An arthritis index was calculated for each rat by summing the scores for the individual paws.

IL-6 = details: mouse, in vivo
Method: as §1

TNF-alpha = details: mouse, in vivo
Method: as §1

Structure (SMILES): Nc1cccc2c(=O)[nH][nH]c(=O)c12.[Na] [5-amino-2,3-dihydro-1,4-phthalazinedione sodium salt]
- disability progression (PPMS or SPMS): 0.5 EDSS points
- downregulation of TNFalpha (TNFalpha): promising
- neuronal damage in neurodegenerative diseases (neuronal damage): prevent neuronal damage

Structure (SMILES): Nc1cccc2c(=O)[nH][nH]c(=O)c12 [5-amino-2,3-dihydro-1,4-phthalazinedione]
- half-life [1]: several hours

Structure (SMILES): Nc1cccc2c(=O)[nH][nH]c(=O)c12.[Na] [Form I, 5-amino-2,3-dihydro-1,4-phthalazinedione sodium salt]
- effective dosage confirmed (inflammatory cytokines; ip): 0.5 mg/kg
- effect when applied orally (inflammatory cytokines; po): there was an effect
- arthritic score [2]: significantly reduced
- most effective dose [2]: medium
- cumulative score of the disease ([2]; ip, 1 mg/kg): reduce significantly

Structure (SMILES): Nc1cccc2c(=O)[nH][nH]c(=O)c12.[Na] [Form II, 5-amino-2,3-dihydro-1,4-phthalazinedione sodium salt]
- Downregulation of IL-6 compared to vehicle (IL-6): significant
- Downregulation of IL-6 significant compared to vehicle (IL-6): not
- dose with best efficacy in down-regulation of IL-6 (IL-6): 0.5 mg/kg
- Downregulation of TNF-alpha compared to vehicle (TNF-alpha): significant
- Downregulation of TNF-alpha significant compared to vehicle (TNF-alpha): not
- dose with best efficacy in down-regulation of TNF-alpha (TNF-alpha): 0.5 mg/kg
- blood levels of inflammatory cytokines provoked by sublethal dose of LPS (inflammatory cytokines): significantly reduced
